The values below come from patent publication US8664226B2, “Compound having 3-heteroarylpyrimidin-4-(3H)-one structure and pharmaceutical preparation containing same” (Kowa Company, Ltd., priority 2009, dated 2014).

Molecules are shown by their SMILES. pEC50, pIC50: −log10 of the molar value.

In one assay the target is T1, human PPARγ2 (Homo sapiens, UniProt P37231).
T1 construct: the amino acids 182 to 505 of human PPARγ2; expressed in transfected cells; host or cells: COS7 cells
Kind of assay: PPARγ activation activity, Gal4 chimera luciferase transfection assay using COS7 cells. Format: cell-based. To be noted: COS7 cells; for pEC50: Gal4-human PPARγ2 LBD chimera, luciferase reporter, 16 hours, read-out: EC50; for Emax: COS-7, 16 h, maximum activity strength relative to the maximum activity of rosiglitazone, read-out: % MAX vs Rosiglitazone. Here is the method: The agonistic activity of the compounds of the invention on PPARγ was measured based on the transfection assay using COS7 cells (DS Pharma Biomedical Co., Ltd., Osaka, Japan), which are the cell line derived from the kidney of the African green monkey. COS7 cells were cultured under 5% CO2 concentration, and DMEM medium containing 10% fetal bovine serum, glutamic acid, and antibiotics was used as a medium.
As an expression vector, a chimera in which DNA binding domain of Gal4, which is a yeast transcription factor, and ligand binding domain of human PPAR^γ2 are fused, i.e., a fused product between the amino acids 1 to 147 of Gal4 transcription factor and the amino acids 182 to 505 of human PPARγ2, was used. Furthermore, as a reporter vector, a firefly luciferase containing five copies of Gal4 recognition sequence in the promoter region was used. Plasmid transfection to the cells was performed according to a method which uses jetPEI (trade name, manufactured by Funakoshi Co., Ltd., Tokyo, Japan). Furthermore, β-galactosidase expression vector was employed as an internal standard.
After the transfection of the cells, the medium was replaced with a DMEM medium (containing 1% serum) added with the compound, and the cells were further cultured for 16 hours. After that, the luciferase activity and β-galactosidase activity in the cell lysis solution were measured.
For the present test, dimethyl sulfoxide (DMSO) was used for dissolution and dilution of the test compounds, and during the cell treatment, the DMSO concentration in DMEM medium (containing 1% serum) was adjusted to 0.1%. As a positive compound, rosiglitazone (trade name, manufactured by ALEXIS Corporation, Switzerland) was used. […] The 50% effective concentration of the test compound (EC50, 50% effect concentration) was calculated by using SAS Preclinical Package Ver5.0 (trade name, manufactured by SAS institute Japan Co., Tokyo, Japan), which is a statistical analysis program.
For orientation: Reporter assays use an easily measured gene product as a stand-in for the process of interest.

The target in assay [1] is T2, angiotensin II type 1 receptor (Oryctolagus cuniculus, UniProt P34976).
T2 construct: By using a specimen of isolated rabbit blood vessels; from tissue; host or cells: rabbit thoracic aorta ring (New Zealand White, male)
T2 sequence (P34976 1-359): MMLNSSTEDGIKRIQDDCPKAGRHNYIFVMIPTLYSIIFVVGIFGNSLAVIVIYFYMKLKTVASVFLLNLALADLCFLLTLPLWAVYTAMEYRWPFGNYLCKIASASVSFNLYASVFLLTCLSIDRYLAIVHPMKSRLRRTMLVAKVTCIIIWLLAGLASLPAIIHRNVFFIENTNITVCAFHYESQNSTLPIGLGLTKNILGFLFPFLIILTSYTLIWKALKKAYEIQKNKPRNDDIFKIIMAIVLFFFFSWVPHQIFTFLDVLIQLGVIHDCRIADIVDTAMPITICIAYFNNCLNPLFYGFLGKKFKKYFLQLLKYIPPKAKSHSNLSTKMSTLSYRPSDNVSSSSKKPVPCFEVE
Kind of assay: Angiotensin II antagonistic activity in isolated rabbit blood vessels. The conditions noted are these: angiotensin II (10 nM)-induced contraction of rabbit thoracic aorta ring. Summed up: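 Contraction of isolated rabbit vessel induced by angiotensin II, in a magnus bath at 37° C gassed with 95% O2/5% CO2. Responses expressed as % of the 10 nM angiotensin II contraction without compound, and IC50 calculated from the concentration-response curve.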

T1 sequence (P37231 182-505): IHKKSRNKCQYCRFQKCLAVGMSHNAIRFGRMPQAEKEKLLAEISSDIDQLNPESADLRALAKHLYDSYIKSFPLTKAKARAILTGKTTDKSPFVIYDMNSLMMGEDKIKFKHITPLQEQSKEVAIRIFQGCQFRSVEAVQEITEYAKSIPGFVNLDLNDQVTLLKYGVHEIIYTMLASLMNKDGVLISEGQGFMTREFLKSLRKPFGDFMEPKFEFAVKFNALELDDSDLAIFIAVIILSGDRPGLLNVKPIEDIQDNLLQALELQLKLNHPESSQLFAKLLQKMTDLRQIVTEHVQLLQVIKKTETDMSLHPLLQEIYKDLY
T1 sequence (P04386 1-147 partner limits assumed): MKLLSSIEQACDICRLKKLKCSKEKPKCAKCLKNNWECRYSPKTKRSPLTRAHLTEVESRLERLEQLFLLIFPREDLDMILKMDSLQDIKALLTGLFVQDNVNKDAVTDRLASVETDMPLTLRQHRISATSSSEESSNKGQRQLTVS

For `CCCCc1nc(C)n(-c2ncc(OCCCC(=O)NCC)cn2)c(=O)c1Cc1ccc(-c2ccccc2-c2nnn[nH]2)cc1` [Example 49, 4-{2-{5-{[2′-(1H-tetrazol-5-yl)biphenyl-4-yl]methyl}-4-butyl-2-methyl-6-oxopyrimidin-1(6H)-yl}pyrimidin-5-yloxy}-N-ethylbutanamide], at human PPARγ2, the pEC50 (as a rule, the negative decadic logarithm of the EC50, by convention in mol/L) was 7.15. Moreover, the pIC50 (as a rule, the IC50 on a negative log10 scale, so that one unit is a factor of ten) in assay [1] was 7.92.

Regarding `CCCCc1nc(C)n(-c2ncc(OCCc3ccc(CC)cn3)cn2)c(=O)c1Cc1ccc(-c2ccccc2-c2nnn[nH]2)cc1` [Example 36, 5-{[2′-(1H-tetrazol-5-yl)biphenyl-4-yl]methyl}-6-butyl-3-{5-[2-(5-ethylpyridin-2-yl)ethoxy]pyrimidin-2-yl}-2-methylpyrimidin-4 (3H)-one], on human PPARγ2, the pEC50 was 5.42. In assay [1], this compound gave a pIC50 of 6.20.

Take `CCCCc1nc(C)n(-c2ncc(OC3CCCCC3)cn2)c(=O)c1Cc1ccc(-c2ccccc2-c2nnn[nH]2)cc1` [Example 28, 5-{[2′-(1H-tetrazol-5-yl)biphenyl-4-yl]methyl}-6-butyl-3-[5-(cyclohexyloxy)pyrimidin-2-yl]-2-methylpyrimidin-4 (3H)-one]: at human PPARγ2, the pEC50 is 5.91 and the Emax stood at 28.9%. This compound also showed a pIC50 in assay [1] of 7.31.

Consider `CCCCc1nc(C)n(-c2ncccc2F)c(=O)c1Cc1ccc(-c2ccccc2-c2nnn[nH]2)cc1` [Example 4, 5-{[2′-(1H-tetrazol-5-yl)biphenyl-4-yl]methyl}-6-butyl-3-(3-fluoropyridin-2-yl)-2-methylpyrimidin-4(3H)-one], for which, at human PPARγ2, the negative-log EC50 (pEC50) is 5.84. For the same compound, the pIC50 in assay [1] is 7.22.

Regarding `CCCCc1nc(C)n(-c2ncccc2Cl)c(=O)c1Cc1ccc(-c2ccccc2-c2nnn[nH]2)cc1` [Example 6, 5-{[2′-(1H-tetrazol-5-yl)biphenyl-4-yl]methyl}-6-butyl-3-(3-chloropyridin-2-yl)-2-methylpyrimidin-4(3H)-one], at human PPARγ2, the pEC50 is 5.77 and the Emax worked out at 20.3%. Further, the pIC50 in assay [1] was 7.62.

For `CCCCc1nc(C)n(-c2cc3ccccc3cn2)c(=O)c1Cc1ccc(-c2ccccc2-c2nnn[nH]2)cc1` [Example 68, 5-{[2′-(1H-tetrazol-5-yl)biphenyl-4-yl]methyl}-6-butyl-3-(isoquinolin-3-yl)-2-methylpyrimidin-4 (3H)-one], on human PPARγ2, the pEC50 is 5.58. The compound further had a pIC50 in assay [1] of 6.65.
